Drawing on patent publication US5294617A, “Angiotensin II receptor blocking 2,3,6 substituted quinazolinones” (American Cyanamid Company, priority 1993, dated 1994), this text covers Specific binding for one substance.

The target of this assay is T1, Angiotensin II Receptor (Bos taurus, UniProt P25104).
T1 construct: The brownish tissue forming the adrenal cortex is scraped off and finely minced with scissors before homogenization; tissue local slaughter house (Maxwell--Cohen); host or cells: beef adrenal cortex, microsomal membranes (100,000×g pellet)
T1 sequence (P25104 1-359): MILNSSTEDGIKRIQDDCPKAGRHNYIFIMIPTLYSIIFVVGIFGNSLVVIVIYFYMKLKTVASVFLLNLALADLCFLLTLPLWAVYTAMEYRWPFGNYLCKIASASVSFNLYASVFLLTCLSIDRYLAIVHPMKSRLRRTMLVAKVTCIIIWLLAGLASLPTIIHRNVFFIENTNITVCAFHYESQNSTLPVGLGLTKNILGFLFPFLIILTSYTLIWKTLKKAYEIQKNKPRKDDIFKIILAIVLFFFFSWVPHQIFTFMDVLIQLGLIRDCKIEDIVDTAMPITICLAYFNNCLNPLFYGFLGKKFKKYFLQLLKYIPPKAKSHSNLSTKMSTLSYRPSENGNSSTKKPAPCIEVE
Briefly: Receptor Binding Assay: binding of [125I](Sar1,Ile8)AngII to beef adrenal cortex membranes. The conditions noted are these: radioligand, beef adrenal membranes; non-specific with 1.0 uM unlabeled (Sar1,Ile8)AngII. From the text:
[^125 I](Sar^1,Ile^8)AngII, S.A. 2200 Ci/mmole, is purchased from Dupont (NEN®, Boston, Mass.). All unlabeled AngII analogs, Dimethylsulfoxide (DMSO), nucleotides, bovine serum albumin (BSA) are purchased from Sigma Chemical Co., St. Louis, Mo. U.S.A.
Approximately sixteen (16) to twenty (20) beef adrenal glands are processed as follows: fresh adrenal glands received on crushed ice are cleaned of fatty tissues and the tough membranes encapsulating the glands are removed and discarded. The brownish tissue forming the adrenal cortex is scraped off and finely minced with scissors before homogenization. Care is taken to avoid contamination with medullary tissue during dissection. The scraped cortices are suspended in twenty volumes of an ice-cold buffer medium consisting of 10 mM Tris.HCl (pH 7.4 at 22° C.) and containing 1.0 mM EDTA and 0.2M sucrose. Unless otherwise indicated, all subsequent operations are done at 4° C. […] The homogenate is centrifuged first at low speed (3,000×g) for 10 min. […] This P2 pellet is discarded and the liquid phase is carefully decanted off in clean centrifuge tubes and recentrifuged at high speed (100,000×g) for 60 min. The translucent final pellet is harvested and combined in a small volume (20-50.0 ml) of 50.0 mM Tris.HCl buffer, pH 7.2. […] The pelleted membrane is reconstituted in 50.0 mM Tris.HCl buffer containing 0.1 mM of phenylmethylsulfonyl fluoride (PMSF) to give approximately a protein concentration of 2.5 mg per ml of tissue suspension. The membrane preparation is finally aliquoted in 1.0 ml volumes and stored at -70° C. until use in the binding assays.
In competition studies, experimental compounds are diluted in dimethylsulfoxide (DMSO) and added in 20 ul to wells before the introduction of tissue membranes. […] Assays are performed in triplicate. The wells are left undisturbed for 60 min. at room temperature. […] The filters are removed from the filter grid and counted in a Parkard® Cobra Gamma Counter for 1 min. […] The binding data are analyzed by the non-linear interactive "LUNDON-1" program (LUNDON SOFTWARE Inc., Cleveland, Ohio U.S.A.).

In the case of “[^125 I](Sar^1,Ile^8) AngII [reference compound]”, the Specific binding result is “greater than 90%”.
